These results are taken from patent US8648112B2, “Therapeutic uses of urolithins” (The Regents of the University of California, priority 2006, dated 2014).

One data set concerns LNCaP cells. The data set is described as follows: In vitro proliferation (tritiated thymidine uptake), LNCaP. Type of data set: cell-based. The conditions noted are these: mean ± SE, read-out: IC50 on growth of human prostate cancer cells. From the text:
(§1) DU145 and LNCaP cells (ATCC, Rockville, Md.), 22Rv1 cells (gift from Pinchas Cohen), and LNCAP-AR cells (gift from Charles Sawyers) were maintained below passage 20 and used in experiments during the linear phase of growth as previously described (Seeram et al. J Nutr Biochem. 16 (2005), p. 360). EA was purchased from Sigma-Aldrich (St. Louis, Mo.). UA (3,8-dihydroxy-6H-benzo[b,d]chromen-6-one), methylated UA and dimethylated UA were synthesized in our laboratory as previously described (Ghosal et al. J Chem Res Synop. 11 (1989), p. 350). Compounds were dissolved in dimethylsulfoxide (DMSO) then added to media to achieve the final desired test concentration with a final DMSO concentration not exceeding 0.1%. Proliferation was determined by tritiated thymidine uptake as previously described. All assays were performed in triplicate.
(§2) For the cell proliferation assays, data are expressed as a percentage of untreated cells (i.e. treatment value-blank/vehicle value-blank), mean±SE for at least three separate experiments. Data were analyzed by either student's t-test or one-way ANOVA followed by Dunnett's Multiple Range test (α=0.05) with Graph Pad Prism 3.0 (Graph Pad Software Inc.) as appropriate.

A further data set has as its system DU145 cells. In words: In vitro proliferation (tritiated thymidine uptake), DU145. Type of data set: cell-based. The conditions noted are these: read-out: IC50 on growth of human prostate cancer cells.
Excerpt: as §1, §2

The subject of the next data set is 22Rv1 cells. The data set is described as follows: In vitro proliferation (tritiated thymidine uptake), 22RV1. To be noted: mean ± SE, read-out: IC50 on growth of human prostate cancer cells. In kind it is cell-based.
Excerpt: as §1, §2

Data set [1] relates to 22Rv1 prostate cancer cell line. The data set is described as follows: Antiproliferative cell assay (CellTiter-Glo), 22Rv1. Type of data set: cell-based, human. To be noted: 48 h exposure, read-out: IC50 against prostate cancer cell line 22 Rv1. As for the experimental part: (§3) Cell Culture Materials. The 22Rv1, DU145, LNCaP and PC3 prostate cancer cell lines were obtained from American Type Culture Collection (ATCC, Rockville, Md.). The LNCaP-AR and Hi-Myc cell lines were a kind donation by Dr. C. Sawyers (David Geffen School of Medicine, UCLA, Los Angeles, Calif.). DU145, 22Rv1, LNCaP, LNCaP-AR, and PC3 cells were grown in RPMI 1640; Hi-Myc cells were grown in Isecove's Modified Dulbecco's Medium. All media contained 10% fetal bovine serum (FBS) in the presence of 100 U/mL penicillin and 0.1 g/L streptomycin. RWPE-1 prostate cells were grown in Defined Keratinocyte Serum Free Medium (DKSFM) containing epidermal growth factor (EGF), insulin and fibroblast growth factor (FGF). Cells were incubated at 37° C. with 95% air and 5% CO2. All cells were maintained below passage 20 and used in experiments during the linear phase of growth.
(§4) Proliferation was measured utilizing the CellTiter-Glo® Luminescent Cell Viability Assay (Technical Bulletin #288, Promega Corp., Madison, Wis.). When added to cells, the assay reagent produces luminescence in the presence of ATP from viable cells. Cells were plated in 96-well plates at a density of 10,000 cells/well and incubated for 24 hours. Test samples were solubilized in DMSO by sonication, filter sterilized and diluted with media to the desired treatment concentration. Cells were treated with 100 μLcontrol media, vehicle control (DMSO<0.2% of total) or test samples and incubated for 48 h drug exposure duration at 6.25, 12.5, 25, 50 and 100 μg/mL concentrations. At the end of 48 h, plates were equilibrated at room temperature for 30 min; 100 μL of the assay reagent was added to each well and cell-lysis was induced on an orbital shaker for 2 min. Plates were incubated at room temperature for 10 min to stabilize the luminescence signal and results were read on an Orion Microplate Luminometer (Bertholds Detection Systems, Pforzheim, Germany). All plates had control wells containing medium without cells to obtain a value for background luminescence. Data are expressed as percentage of untreated cells (i.e. treatment value-blank/vehicle value-blank), mean±SE for three replications.

Data set [2] relates to DU145 prostate cancer cell line. In words: Antiproliferative cell assay (CellTiter-Glo), DU145. The conditions noted are these: read-out: IC50 against prostate cancer cell line DU145. Type of data set: cell-based, human. The method, then:
as §3, §4

Data set [3] has as its system Hi-Myc prostate cancer cell line. In words: Antiproliferative cell assay (CellTiter-Glo), Hi-Myc. In kind it is cell-based. The conditions noted are these: Hi-Myc (mouse), 48 h exposure, read-out: IC50 against prostate cancer cell line HiMyc. As for the experimental part:
as §3, §4
Background: ATP-based viability assays read luminescence as a measure of living cells.

Data set [4] deals with LNCaP prostate cancer cell line. In words: Antiproliferative cell assay (CellTiter-Glo), LNCaP. In kind it is cell-based, human. To be noted: 48 h exposure, read-out: IC50 against prostate cancer cell line LNCaP. As for the experimental part: as §3, §4
In data set [5] the test system is LNCaP-AR prostate cancer cell line. In words: Antiproliferative cell assay (CellTiter-Glo), LNCaP-AR. Type of data set: cell-based, human. To be noted: 48 h exposure, read-out: IC50 against prostate cancer cell line LNCap-AR. As for the experimental part:
as §3, §4

Data set [6] deals with PC3 prostate cancer cell line. The data set is described as follows: Antiproliferative cell assay (CellTiter-Glo), PC3. In kind it is cell-based, human. To be noted: 48 h exposure, read-out: IC50 against prostate cancer cell line PC3. As for the experimental part: as §3, §4
Data set [7] deals with human colon cancer cell line HCT-116. The data set is described as follows: Antiproliferative activity against colon cancer cells (CellTiter-Glo). Type of data set: cell-based. To be noted: 100 μg/mL, 48 hrs. As for the experimental part:
(§5) EA and EA-metabolites (gallic and gallagic acids, urolithin B and methylated-urolithin A) were evaluated for antiproliferative activity against the human colon cancer cell line HCT-116. The cells were grown to a concentration of 10,000 cells per well in a 96 well format; and were then resuspended in medium containing vehicle control or the indicated compound: Ellagic acid, urolithin A, methyl urolithin A, or urolithin B, at a concentration of 100 μg/mL. The cells were incubated for 48 hrs, and the viability assayed by the CellTiter-Glo® Luminescent Cell Viability Assay (Technical Bulletin #288, Promega Corp., Madison, Wis.).

In data set [8] the test system is human pancreatic cancer cell line ASPC-1. The data set is described as follows: Antiproliferative activity against pancreatic cancer cells (CellTiter-Glo), ASPC-1. Type of data set: cell-based. The conditions noted are these: 100 μg/mL, 48 hrs. As for the experimental part: as §5, with “pancreatic” for “colon”, “lines ASPC-1 and BXPC-3.” for “line HCT-116.”, “well;” for “well in a 96 well format;”, “containing the” for “containing”, “byCellTiter-Glo®” for “by the CellTiter-Glo®”

In data set [9] the test system is human pancreatic cancer cell line BXPC-3. The data set is described as follows: Antiproliferative activity against pancreatic cancer cells (CellTiter-Glo), BXPC-3. In kind it is cell-based. The conditions noted are these: 100 μg/mL, 48 hrs. As for the experimental part:
as §5, with “pancreatic” for “colon”, “lines ASPC-1 and BXPC-3.” for “line HCT-116.”, “well;” for “well in a 96 well format;”, “containing the” for “containing”, “byCellTiter-Glo®” for “by the CellTiter-Glo®”

Data set [10] is described as follows: Tissue disposition study after UA administration. To be noted: for UA and UA-conjugate levels in plasma at 24 h / UA and UA-conjugate levels in tissues at 24 h: below detectable limit. In kind it is in vivo, C57/B6 mice. As for the experimental part: Pomegranate extract (PE) derived from the skin of pomegranate fruit (Punica granatum L., Paramount Farms, Lost Hills, Calif.) was standardized to 37% ETs (as punicalagins) and 3.5% free EA as reported (Seeram et al. Sep Purific Tech. 41 (2005), p. 49). PE was administered to animals in doses based on the amount of ETs in a single serving of pomegranate juice (240 ml of single strength juice, 80 mg of ETs). The equivalent dose that would be administered to a 70 kg human was calculated for a mouse of 25 g body weight to be 0.03 mg ETs. Ten times (10×) this dose was used in the animal studies (0.8 mg PE per dose per animal) to enhance our ability to detect phytochemical distribution. For studies administering UA, doses were calculated assuming complete conversion of ETs to UA. […] Both PE and UA were suspended in 50 μL PBS or 10% aqueous glucose solution for intraperitoneal or oral administration, respectively.
Male C57/B6 mice (n=156 mice, retired breeders, 7 months old, 25-30 g) from Charles River laboratories (Wilmington, Mass.) were fed AlN 93G diets and water ad libitum, and fasted 6 h prior to dosing. Mice were dosed orally or intraperitoneally with either PE (0.8 mg/mouse/dose; n=72), UA (0.3 mg/mouse/dose; n=72) or vehicle control (50 μL; n=12 mice). Blood samples were collected at 0.5, 1, 2, 4, 6 and 24 h after dosing and prostate, liver, kidney, lung, colon, intestine and brain tissues were collected and stored at −80° C. Harvested tissue (200 mg) was homogenized in methanol with 0.1% acetic acid (1 mL) and centrifuged at 3000×g for 10 min. The supernatant was dried on a SpeedVac then reconstituted with 200 μL of the HPLC mobile phase for a final injection volume of 20 μL. Xenograft tissue homogenates required acid hydrolysis prior to chromatography as reported (Gu et al. J Agric Food Chem. 53 (2005), p. 6858). HPLC-UV and HPLC-MS/MS analyses were carried out on a Waters Alliance 2690 system (Waters Corp., Milford, Mass.) an LCQ Classic Finnigan system (ThermoFinnigan, San Jose, Calif.), respectively, as previously described (Seeram et al. Clin Chim Acta. 348 (2004), p. 63). Linear calibration curves were constructed using a spiked internal standard method with EA or UA using plasma or liver tissues collected from control mice as described previously (Seeram et al. Clin Chim Acta. 348 (2004), p. 63). Accuracy values ranged from 91-108% for the quality control samples containing the EA or UA standard.

For the next data set, the system named is LNCaP-AR cells. The data set is described as follows: In vitro proliferation (tritiated thymidine uptake), LNCaP-AR. In kind it is cell-based. To be noted: mean ± SE, read-out: IC50 on growth of human prostate cancer cells.
Excerpt: as §1, §2

[11] abbreviates: UA 0.3 mg/mouse/dose intraperitoneal.
[12] abbreviates: Homo sapiens, DU-145, 48 h exposure.

Like-named read-outs stand apart in the source and are kept apart here.

A word on the IC50: it is the point on the concentration scale where inhibition reaches its midpoint. With `COc1ccc2c(c1)oc(=O)c1cc(OC)ccc12` [dmUA], the IC50 in the data set with LNCaP cells came to 71.4 ± 13.5 µM; in the data set on DU145 cells (mean ± SE) it was 70.7 ± 13 µM; in the data set with 22Rv1 cells it was 85 ± 8.6 µM.
With `O=C(O)c1cc(O)c(O)c(O)c1-c1c(O)c(O)c2oc(=O)c3c(-c4c(C(=O)O)cc(O)c(O)c4O)c(O)c(O)c4oc(=O)c1c2c43` [Gallagic acid], the IC50 in data set [1] stood at 166 µM; in data set [2] (48 h exposure) it was 198 µM; in [3], 82.7 µM; in data set [4], 71.4 µM; in [5], 82.4 µM; in [6], 83.6 µM.
With `O=c1oc2cc(O)ccc2c2ccc(O)cc12` [UA, 3,8-dihydroxy-6H-benzo[b,d]chromen-6-one], the “anti-proliferative activity, rank order” value in data set [7], in data set [8] and in [9] was “most active” each time. Moreover, the “UA and UA-conjugate levels in plasma at 24 h” value in data set [10] (setting [11]) and in data set [10] (UA 0.3 mg/mouse/dose oral) was < 3 ng/mL in each case. In addition, the “UA and UA-conjugate levels in tissues at 24 h” value in [10] (setting [11]) and in [10] (UA 0.3 mg/mouse/dose oral) was < 5 ng/g in each case. The “time of peak concentration in prostate, colon and intestine” value in data set [10] (UA intraperitoneally) turned out to be 2 h. Moreover, the tissue uptake entry in data set [10] (UA orally, prostate followed by small intestine and colon) was “highest concentrations in the prostate gland”. Besides, the concentration for half-maximal inhibition (IC50) is 31.3 ± 0.5 µM in the data set with LNCaP cells, 43.3 ± 2.8 µM in the data set with LNCaP-AR cells, 49.8 ± 3.9 µM with DU145 cells (mean ± SE) and 47.8 ± 3.2 µM with 22Rv1 cells.
As for `O=C(O)c1cc(O)c(O)c(O)c1` [Gallic acid], the IC50 in data set [1] came to 18.5 µM; in data set [1] (Homo sapiens, 22Rv1, 48 h), 18.6 µM; in [2] (setting [12]), 29.4 µM; in data set [3] it was 73.5 µM; in [4] (Homo sapiens), 32.3 µM; in data set [5] (Homo sapiens), 29.2 µM. In addition, in data set [6] (Homo sapiens), the half-maximal inhibitory concentration (IC50) came out at 111 µM.
Regarding `COc1ccc2c(c1)c(=O)oc1cc(O)ccc12` [8-methyl-Urolithin A, 3-hydroxy-8-methoxyl-6H-dibenzo[b,d]pyran-6-one], the IC50 is 127 µM in [1] (Homo sapiens, 22Rv1, 48 h); 466 µM in data set [2] (setting [12]); 586 µM in data set [3]; 206 µM in data set [4] (Homo sapiens); 151 µM in data set [5] (Homo sapiens); 526 µM in data set [6] (Homo sapiens). The “anti-proliferative activity, rank order” value in [7] was “urolithin A is the most active, then ellagic acid, urolithin B and methyl urolithin A”; in data set [8] it was “urolithin A is the most active, then ellagic acid, urolithin B and methyl urolithin A”; in data set [9], “urolithin A is the most active, then ellagic acid, urolithin B and methyl urolithin A”.
In the case of `O=c1oc2c(O)c(O)cc3c(=O)oc4c(O)c(O)cc1c4c23` [Ellagic acid, reference compound], the IC50 stood at 41.7 µM in [1] (Homo sapiens, 22Rv1, 48 h); 96 µM in data set [2] (setting [12]); 1.7 µM in [3]; 20.5 µM in [4] (Homo sapiens); 82.6 µM in data set [5] (Homo sapiens); 83.6 µM in data set [6] (Homo sapiens). The IC50 in the data set with LNCaP cells (Homo sapiens) was 62.4 ± 4.2 µM; with LNCaP-AR cells (Homo sapiens) it was 78.7 ± 3.2 µM; with DU145 cells (Homo sapiens, DU-145, mean ± SE) it was 74.3 ± 5.2 µM; with 22Rv1 cells (Homo sapiens), 109 ± 16.6 µM. Besides, the “anti-proliferative activity, rank order” value in data set [7] is “urolithin A is the most active, then ellagic acid, urolithin B and methyl urolithin A”; in data set [8], “urolithin A is the most active, then ellagic acid, urolithin B and methyl urolithin A”; in [9] it was “urolithin A is the most active, then ellagic acid, urolithin B and methyl urolithin A”.
